Laboratory results as given in ChEMBL document CHEMBL1136839, “3,4-Disubstituted isothiazoles: novel potent inhibitors of VEGF receptors 1 and 2” (Bioorg Med Chem Lett, 2009).
pIC50: −log10 of the molar value.

How the values were obtained:
[1] = target: Aurora kinase B (Homo sapiens) (UniProt Q96GD4); experiment: Inhibition of Aurora B at 10 uM by HTRF assay
[2] = target: T1, Vascular endothelial growth factor receptor 2 (Homo sapiens, UniProt P35968); experiment: Inhibition of VEGFR2 assessed as blockade of pGAT-biotin phosphorylation in presence of 2 uM ATP by HTRF assay
T1 sequence (P35968 whole entry): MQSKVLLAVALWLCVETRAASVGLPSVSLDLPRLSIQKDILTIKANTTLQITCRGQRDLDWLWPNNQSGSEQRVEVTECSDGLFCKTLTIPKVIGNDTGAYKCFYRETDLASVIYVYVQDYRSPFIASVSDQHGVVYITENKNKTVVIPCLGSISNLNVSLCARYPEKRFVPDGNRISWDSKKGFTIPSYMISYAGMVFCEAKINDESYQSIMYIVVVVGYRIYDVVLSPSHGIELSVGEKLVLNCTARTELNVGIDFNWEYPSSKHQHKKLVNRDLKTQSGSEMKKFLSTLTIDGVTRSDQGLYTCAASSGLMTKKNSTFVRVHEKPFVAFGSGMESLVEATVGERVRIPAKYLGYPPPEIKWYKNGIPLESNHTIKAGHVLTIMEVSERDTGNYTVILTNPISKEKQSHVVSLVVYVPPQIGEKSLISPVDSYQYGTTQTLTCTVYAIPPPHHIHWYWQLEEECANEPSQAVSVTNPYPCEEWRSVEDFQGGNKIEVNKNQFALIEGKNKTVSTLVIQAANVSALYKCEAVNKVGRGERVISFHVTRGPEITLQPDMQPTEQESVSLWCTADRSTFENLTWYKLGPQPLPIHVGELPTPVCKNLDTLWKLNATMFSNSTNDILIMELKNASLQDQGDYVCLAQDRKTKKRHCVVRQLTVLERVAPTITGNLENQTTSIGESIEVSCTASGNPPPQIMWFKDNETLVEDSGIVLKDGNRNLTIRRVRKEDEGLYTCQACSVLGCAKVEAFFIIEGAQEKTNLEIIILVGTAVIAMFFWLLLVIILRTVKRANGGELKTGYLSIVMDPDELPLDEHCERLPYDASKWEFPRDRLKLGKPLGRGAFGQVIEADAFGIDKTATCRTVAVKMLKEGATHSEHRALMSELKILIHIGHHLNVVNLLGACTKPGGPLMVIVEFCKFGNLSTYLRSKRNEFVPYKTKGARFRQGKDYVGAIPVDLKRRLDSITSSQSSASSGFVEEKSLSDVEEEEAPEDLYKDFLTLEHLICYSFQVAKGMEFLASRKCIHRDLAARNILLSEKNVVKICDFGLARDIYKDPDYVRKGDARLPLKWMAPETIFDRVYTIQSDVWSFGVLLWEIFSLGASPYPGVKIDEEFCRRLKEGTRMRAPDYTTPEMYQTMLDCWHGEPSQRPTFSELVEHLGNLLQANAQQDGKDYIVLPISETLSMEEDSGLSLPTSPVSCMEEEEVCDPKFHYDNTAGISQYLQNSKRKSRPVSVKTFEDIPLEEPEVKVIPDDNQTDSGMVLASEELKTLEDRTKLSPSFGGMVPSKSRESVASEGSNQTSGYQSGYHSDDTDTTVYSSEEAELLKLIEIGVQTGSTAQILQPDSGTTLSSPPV

[3] = Inhibition of PKA at 10 uM by HTRF assay
[4] = target: Glycogen synthase kinase-3 beta (Homo sapiens) (UniProt P49841); experiment: Inhibition of GSK3-beta at 10 uM by HTRF assay
Chain of Glycogen synthase kinase-3 beta (Homo sapiens) (P49841 whole entry, looked up): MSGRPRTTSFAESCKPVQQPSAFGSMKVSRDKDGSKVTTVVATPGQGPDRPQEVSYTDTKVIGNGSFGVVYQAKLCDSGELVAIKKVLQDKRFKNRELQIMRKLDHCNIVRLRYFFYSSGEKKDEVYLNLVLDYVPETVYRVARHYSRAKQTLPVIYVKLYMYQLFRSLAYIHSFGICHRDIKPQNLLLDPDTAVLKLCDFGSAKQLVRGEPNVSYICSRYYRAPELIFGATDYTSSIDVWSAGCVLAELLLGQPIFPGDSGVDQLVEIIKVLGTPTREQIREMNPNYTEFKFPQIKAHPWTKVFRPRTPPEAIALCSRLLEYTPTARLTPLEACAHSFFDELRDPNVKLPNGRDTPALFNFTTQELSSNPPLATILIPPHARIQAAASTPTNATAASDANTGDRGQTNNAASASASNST

[5] = target: Receptor-type tyrosine-protein kinase FLT3 (Homo sapiens) (UniProt P36888); experiment: Inhibition of Flt3 at 10 uM by HTRF assay
[6] = target: Vascular endothelial growth factor receptor 1 (Homo sapiens, UniProt P17948); experiment: Inhibition of VEGFR1 assessed as blockade of pGAT-biotin phosphorylation in presence of 2 uM ATP by HTRF assay
[7] = target: T2, Aurora kinase A (Homo sapiens) (UniProt O14965); experiment: Inhibition of Aurora A at 10 uM by HTRF assay
T2 sequence (whole entry): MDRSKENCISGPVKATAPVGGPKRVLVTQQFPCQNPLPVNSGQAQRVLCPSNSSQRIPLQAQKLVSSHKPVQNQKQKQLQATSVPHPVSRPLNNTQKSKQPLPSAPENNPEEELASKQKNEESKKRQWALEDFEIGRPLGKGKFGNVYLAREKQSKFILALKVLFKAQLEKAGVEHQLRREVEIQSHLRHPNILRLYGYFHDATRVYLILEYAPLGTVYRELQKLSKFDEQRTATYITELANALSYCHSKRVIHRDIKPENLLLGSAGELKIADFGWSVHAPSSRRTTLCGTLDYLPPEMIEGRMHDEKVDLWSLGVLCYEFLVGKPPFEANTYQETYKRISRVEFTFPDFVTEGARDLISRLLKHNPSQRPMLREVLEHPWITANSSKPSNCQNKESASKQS

[8] = Inhibition of Bcr-Abl T315 mutant at 10 uM by HTRF assay
[9] = target: Macrophage-stimulating protein receptor (Homo sapiens) (UniProt Q04912); experiment: Inhibition of Ron at 10 uM by HTRF assay
[10] = target: Hepatocyte growth factor receptor (Homo sapiens) (UniProt P08581); experiment: Inhibition of cMET at 10 uM by HTRF assay
[11] = target: Cyclin-dependent kinase 1 (Homo sapiens) (UniProt P06493); experiment: Inhibition of CDK1 at 10 uM by HTRF assay
[12] = target: Epidermal growth factor receptor (Homo sapiens) (UniProt P00533); experiment: Inhibition of EGFR at 10 uM by HTRF assay
[13] = target: Proto-oncogene tyrosine-protein kinase Src (Homo sapiens) (UniProt P12931); experiment: Inhibition of Src at 10 uM by HTRF assay
Chain of Proto-oncogene tyrosine-protein kinase Src (Homo sapiens) (P12931 2-536 limits assumed): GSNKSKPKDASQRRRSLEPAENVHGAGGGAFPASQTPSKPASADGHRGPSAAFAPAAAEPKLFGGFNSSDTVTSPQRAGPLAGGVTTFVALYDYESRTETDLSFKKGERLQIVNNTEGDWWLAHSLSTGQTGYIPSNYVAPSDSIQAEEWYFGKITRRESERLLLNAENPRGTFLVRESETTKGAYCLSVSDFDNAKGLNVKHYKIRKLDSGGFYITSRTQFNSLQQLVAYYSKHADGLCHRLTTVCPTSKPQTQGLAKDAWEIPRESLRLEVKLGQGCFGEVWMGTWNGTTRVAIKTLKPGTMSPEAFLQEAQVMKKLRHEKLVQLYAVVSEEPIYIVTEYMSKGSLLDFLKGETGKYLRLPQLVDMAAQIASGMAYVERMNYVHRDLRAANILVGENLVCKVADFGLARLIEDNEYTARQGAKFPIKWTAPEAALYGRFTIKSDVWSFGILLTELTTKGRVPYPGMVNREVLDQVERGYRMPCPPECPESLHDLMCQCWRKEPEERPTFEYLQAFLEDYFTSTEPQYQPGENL

[14] = target: Cyclin-dependent kinase 2 (Homo sapiens) (UniProt P24941); experiment: Inhibition of CDK2 at 10 uM by HTRF assay
[15] = target: Receptor tyrosine-protein kinase erbB-2 (Homo sapiens) (UniProt P04626); experiment: Inhibition of ErbB2 at 10 uM by HTRF assay
[16] = target: Insulin-like growth factor 1 receptor (Homo sapiens) (UniProt P08069); experiment: Inhibition of IGF1R at 10 uM by HTRF assay
Chain of Insulin-like growth factor 1 receptor (Homo sapiens) (P08069 31-736 limits assumed): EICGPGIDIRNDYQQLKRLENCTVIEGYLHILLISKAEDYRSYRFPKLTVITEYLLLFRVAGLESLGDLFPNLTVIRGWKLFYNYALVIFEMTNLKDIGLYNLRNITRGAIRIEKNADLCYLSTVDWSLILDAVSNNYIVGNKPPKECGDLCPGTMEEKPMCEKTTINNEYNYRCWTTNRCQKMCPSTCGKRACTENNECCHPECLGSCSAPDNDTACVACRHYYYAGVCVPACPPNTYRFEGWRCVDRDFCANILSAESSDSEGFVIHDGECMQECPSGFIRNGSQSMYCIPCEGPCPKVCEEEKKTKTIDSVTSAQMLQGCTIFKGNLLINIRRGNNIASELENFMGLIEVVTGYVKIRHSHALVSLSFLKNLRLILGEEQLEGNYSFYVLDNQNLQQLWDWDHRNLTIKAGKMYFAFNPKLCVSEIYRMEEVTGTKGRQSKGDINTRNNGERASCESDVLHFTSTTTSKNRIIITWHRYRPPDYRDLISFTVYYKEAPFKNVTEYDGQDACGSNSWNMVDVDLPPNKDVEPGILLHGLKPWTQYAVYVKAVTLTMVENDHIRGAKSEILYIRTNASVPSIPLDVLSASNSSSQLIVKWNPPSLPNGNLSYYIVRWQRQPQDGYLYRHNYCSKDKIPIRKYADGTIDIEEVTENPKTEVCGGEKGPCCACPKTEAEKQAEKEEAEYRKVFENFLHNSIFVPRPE
Chain of Insulin-like growth factor 1 receptor (Homo sapiens) (P08069 741-1367 limits assumed): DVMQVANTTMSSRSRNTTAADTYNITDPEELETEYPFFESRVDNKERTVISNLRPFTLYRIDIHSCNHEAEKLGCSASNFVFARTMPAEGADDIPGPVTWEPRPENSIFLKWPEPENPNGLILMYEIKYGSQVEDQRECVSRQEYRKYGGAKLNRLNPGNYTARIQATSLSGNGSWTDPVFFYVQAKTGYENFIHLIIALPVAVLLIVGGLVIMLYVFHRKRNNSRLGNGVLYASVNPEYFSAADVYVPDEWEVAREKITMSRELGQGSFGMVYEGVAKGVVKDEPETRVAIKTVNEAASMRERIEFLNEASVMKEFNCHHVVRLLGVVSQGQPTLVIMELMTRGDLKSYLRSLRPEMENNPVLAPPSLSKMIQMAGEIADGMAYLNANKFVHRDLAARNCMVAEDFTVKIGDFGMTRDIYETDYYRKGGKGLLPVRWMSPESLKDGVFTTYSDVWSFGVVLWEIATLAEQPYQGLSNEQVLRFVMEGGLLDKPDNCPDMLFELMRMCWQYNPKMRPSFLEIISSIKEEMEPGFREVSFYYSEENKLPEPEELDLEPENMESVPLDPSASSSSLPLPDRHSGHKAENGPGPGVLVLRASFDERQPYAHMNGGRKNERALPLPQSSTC

[17] = target: Bcr/Abl fusion protein (Homo sapiens) (UniProt P00519+P11274); experiment: Inhibition of bcr-Abl at 10 uM by HTRF assay; type: protein assay
[18] = target: Fibroblast growth factor receptor 1 (Homo sapiens) (UniProt P11362); experiment: Inhibition of FGFR1 at 10 uM by HTRF assay
[19] = target: T1, Vascular endothelial growth factor receptor 2; experiment: Inhibition of VEGFR2 expressed in HEK293 cells assessed as inhibition of receptor phosphorylation by ELISA; type: cell-based
[20] = target: Serine/threonine-protein kinase PLK1 (Homo sapiens) (UniProt P53350); experiment: Inhibition of Plk1 at 10 uM by HTRF assay
[21] = Intrinsic permeability across human Caco-2 cells
[22] = target: Insulin receptor (Homo sapiens) (UniProt P06213); experiment: Inhibition of InR at 10 uM by HTRF assay
Chain of Insulin receptor (Homo sapiens) (P06213 28-758 limits assumed): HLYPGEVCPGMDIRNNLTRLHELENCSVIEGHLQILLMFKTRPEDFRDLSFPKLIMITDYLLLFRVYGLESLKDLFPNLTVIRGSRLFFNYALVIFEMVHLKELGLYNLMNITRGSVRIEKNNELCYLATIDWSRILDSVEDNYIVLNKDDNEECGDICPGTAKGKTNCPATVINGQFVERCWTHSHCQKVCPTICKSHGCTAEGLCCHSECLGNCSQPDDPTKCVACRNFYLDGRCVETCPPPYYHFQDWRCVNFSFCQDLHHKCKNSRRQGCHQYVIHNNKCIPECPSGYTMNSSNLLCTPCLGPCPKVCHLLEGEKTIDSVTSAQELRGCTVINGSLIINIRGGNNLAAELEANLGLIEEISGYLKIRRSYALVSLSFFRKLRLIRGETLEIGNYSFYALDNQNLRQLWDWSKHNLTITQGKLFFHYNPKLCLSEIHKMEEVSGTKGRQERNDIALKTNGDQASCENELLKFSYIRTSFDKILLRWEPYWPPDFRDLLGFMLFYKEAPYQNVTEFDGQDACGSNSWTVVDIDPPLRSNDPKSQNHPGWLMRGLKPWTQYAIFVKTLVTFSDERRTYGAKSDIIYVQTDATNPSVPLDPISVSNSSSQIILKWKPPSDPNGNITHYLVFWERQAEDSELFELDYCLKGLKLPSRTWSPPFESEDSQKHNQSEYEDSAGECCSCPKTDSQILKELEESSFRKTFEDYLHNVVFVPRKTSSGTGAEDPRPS
Chain of Insulin receptor (Homo sapiens) (P06213 763-1382 limits assumed): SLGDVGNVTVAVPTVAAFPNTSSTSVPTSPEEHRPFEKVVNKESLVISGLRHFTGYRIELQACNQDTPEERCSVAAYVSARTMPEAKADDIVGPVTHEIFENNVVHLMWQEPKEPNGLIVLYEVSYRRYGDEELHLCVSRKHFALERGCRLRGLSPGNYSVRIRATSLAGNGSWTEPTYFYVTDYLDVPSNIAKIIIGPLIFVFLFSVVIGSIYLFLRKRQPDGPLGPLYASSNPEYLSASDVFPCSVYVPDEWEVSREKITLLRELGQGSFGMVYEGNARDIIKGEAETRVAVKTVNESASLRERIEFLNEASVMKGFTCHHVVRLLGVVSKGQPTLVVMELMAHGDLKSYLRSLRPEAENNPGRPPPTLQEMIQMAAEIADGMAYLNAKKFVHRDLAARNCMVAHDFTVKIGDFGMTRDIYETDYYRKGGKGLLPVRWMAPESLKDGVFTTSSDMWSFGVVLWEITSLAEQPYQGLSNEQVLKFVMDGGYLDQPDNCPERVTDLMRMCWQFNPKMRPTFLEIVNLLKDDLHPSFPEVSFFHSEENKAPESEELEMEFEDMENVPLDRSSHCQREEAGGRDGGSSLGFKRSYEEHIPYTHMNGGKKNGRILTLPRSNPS

Row | Structure (SMILES) | inhibition [1] [%] | pIC50 [2] | inhibition [3] [%] | inhibition [4] [%] | inhibition [5] [%] | pIC50 [6] | inhibition [7] [%] | inhibition [8] [%] | inhibition [9] [%] | inhibition [10] [%] | inhibition [11] [%] | inhibition [12] [%] | inhibition [13] [%] | inhibition [14] [%] | inhibition [15] [%] | inhibition [16] [%] | inhibition [17] [%] | inhibition [18] [%] | pIC50 [19] | inhibition [22] [%] | further results
1 | O=C(Nc1cccc(C(F)(F)F)c1)c1nscc1NCCc1ccc2c(c1)OCO2 | < 30 | < 5.00 | < 30 | < 30 | < 30 | < 5.00 | < 30 | < 30 | < 30 | < 30 | < 30 | < 30 | < 30 | < 30 | < 30 | < 30 | < 30 | < 30 | < 5.00 | < 30 | inhibition [20]: < 30%
2 | O=C(Nc1cccc(C(F)(F)F)c1)c1nscc1NCc1ccccn1 | < 30 | < 5.00 | < 30 | < 30 | < 30 | < 5.00 | < 30 | < 30 | < 30 | < 30 | < 30 | < 30 | < 30 | < 30 | < 30 | < 30 | < 30 | < 30 | < 5.00 | < 30 | inhibition [20]: < 30%
3 | O=C(Nc1cccc(Br)c1)c1nscc1NCc1ccnc2ccccc12 |  |  | < 30 | < 30 | < 30 |  |  | < 30 | < 30 | < 30 | < 30 | < 30 | < 30 | < 30 | < 30 | < 30 | < 30 | < 30 |  | < 30 | Papp [21]: 3.58 ×10⁻⁶ cm/s
4 | O=C(Nc1cccc(C(F)(F)F)c1)c1nscc1NCc1ccnc2ccccc12 |  |  | < 30 | < 30 | < 30 |  |  | < 30 | < 30 | < 30 | < 30 | < 30 | < 30 | < 30 | < 30 | < 30 | < 30 | < 30 |  | < 30 | Papp [21]: 2.72 ×10⁻⁶ cm/s
5 | O=C(Nc1cccc(Br)c1)c1nscc1NCc1ccc2ccccc2n1 | < 30 | < 5.00 | < 30 | < 30 | < 30 | < 5.00 | < 30 | < 30 | < 30 | < 30 | < 30 | < 30 | < 30 | < 30 | < 30 | < 30 | < 30 | < 30 | < 5.00 | < 30 | inhibition [20]: < 30%

The next lines start with results.

Row | inhibition [1] [%] | pIC50 [2] | inhibition [3] [%] | inhibition [4] [%] | inhibition [5] [%] | pIC50 [6] | inhibition [7] [%] | inhibition [8] [%] | inhibition [9] [%] | inhibition [10] [%] | inhibition [11] [%] | inhibition [12] [%] | inhibition [13] [%] | inhibition [14] [%] | inhibition [15] [%] | inhibition [16] [%] | inhibition [17] [%] | inhibition [18] [%] | pIC50 [19] | inhibition [22] [%] | Structure (SMILES) | further results
6 | < 30 | 7.37 | < 30 | < 30 | < 30 | 6.72 | < 30 | < 30 | < 30 | < 30 | < 30 | < 30 | < 30 | < 30 | < 30 | < 30 | < 30 | < 30 | 7.25 | < 30 | Cc1ccc(NC(=O)c2nscc2NCc2ccncc2)cc1C(F)(F)F | inhibition [20]: < 30%; Papp [21]: 5.9 ×10⁻⁶ cm/s
7 |  |  | < 30 | < 30 | < 30 |  |  | < 30 | < 30 | < 30 | < 30 | < 30 | < 30 | < 30 | < 30 | < 30 | < 30 | < 30 |  | < 30 | CC(C)(C)c1cccc(NC(=O)c2nscc2NCc2ccncc2)c1 | Papp [21]: 5.58 ×10⁻⁶ cm/s
8 | < 30 | 6.19 | < 30 | < 30 | < 30 | 6.15 | < 30 | < 30 | < 30 | < 30 | < 30 | < 30 | < 30 | < 30 | < 30 | < 30 | < 30 | < 30 | 6.10 | < 30 | O=C(NCc1ccc2c(c1)OCO2)c1nscc1NCc1ccncc1 | inhibition [20]: < 30%
9 | < 30 | 6.17 | < 30 | < 30 | < 30 | 6.12 | < 30 | < 30 | < 30 | < 30 | < 30 | < 30 | < 30 | < 30 | < 30 | < 30 | < 30 | < 30 | 5.95 | < 30 | O=C(Nc1ccc(Cl)c(Cl)c1)c1nscc1NCc1ccncc1 | inhibition [20]: < 30%
10 | < 30 | 7.57 | < 30 | < 30 | < 30 | 7.26 | < 30 | < 30 | < 30 | < 30 | < 30 | < 30 | < 30 | < 30 | < 30 | < 30 | < 30 | < 30 | 6.68 | < 30 | O=C(Nc1cccc(Br)c1)c1nscc1NCc1ccncc1 | inhibition [20]: < 30%
11 | < 30 | 6.64 | < 30 | < 30 | < 30 | 6.01 | < 30 | < 30 | < 30 | < 30 | < 30 | < 30 | < 30 | < 30 | < 30 | < 30 | < 30 | < 30 | 6.28 | < 30 | O=C(Nc1ccc(Cl)c(C(F)(F)F)c1)c1nscc1NCc1ccncc1 | inhibition [20]: < 30%
12 | < 30 | 6.05 | < 30 | < 30 | < 30 | 5.74 | < 30 | < 30 | < 30 | < 30 | < 30 | < 30 | < 30 | < 30 | < 30 | < 30 | < 30 | < 30 | 5.69 | < 30 | O=C(Nc1ccc(C(F)(F)F)c(Cl)c1)c1nscc1NCc1ccncc1 | inhibition [20]: < 30%
